biological target: TNF-α; experiment: Inhibition of TNFα in culture supernatant of LPS-stimulated peripheral human leukocytes, TNFα-specific enzyme immunoassay; format: cell-based; conditions: Periphere humane Leukozyten, LPS über 22 Std., Kulturüberstand
From the text: […] humane Leukozyten werden mit LPS über 22 Std. inkubiert. Der Kulturüberstand wird mit einem TNFα spezifischen Enzym-Immuno-Assay untersucht. Durch Vergleich der für die Messproben erhaltenen TNFα-Konzentrationen mit den ungehemmten Proben wird die prozentuale Hemmung fiir die einzelne Probe berechnet. Aus der […]. Der IC50-Wert läßt sich wie folgt ermitteln: v = v0 /(1 + [I] / IC50 ) [formula] • v = […]0 = […] ohne Inhibitor • [I] = […] IC50-Werte, der in den Beispielen beschriebenen Substanzen gegen TNF-α finden sich in der folgenden Tabelle:

SMILES | IC50 [nM]
CCOC(=O)c1c2ccc(CC(=O)O)ccc-2c(C(=O)OCC)c1N [Beispiel 1, 2-Amino-6-carboxylmethyl-azulen-1,3-dicarbonsäurediethylester] | 160
CCOC(=O)c1c2ccc(CC(=O)O)ccc-2c(C(=O)OCC)c1NC(C)=O [Beispiel 4, 2-Acetylamino-6-carboxymethyl-azulen-1,3-dicarbonsäurediethylester] | 4100
CCOC(=O)c1c2ccc(CC(=O)NO)ccc-2c(C(=O)OCC)c1NC(C)=O [Beispiel 5, 2-Acetylamino-6-hydroxycarbamoylmethyl-azulen-1,3-dicarbonsäurediethylester] | 20
CCOC(=O)c1c2ccc(C(C(=O)NC(N)=O)C(=O)OCC)ccc-2c(C(=O)OCC)c1N (centres unmarked) [Beispiel 6, 2-Amino-6-(1-ethoxycarbonyl-2-oxo-2-ureido-ethyl)-azulen-1,3-dicarbonsäurediethylester] | 15000
CC(C)(C)OC(=O)c1c2ccc(Br)ccc-2c(C(=O)OC(C)(C)C)c1N [Beispiel 9, 2-Amino-6-bromo-azulen-1,3-dicarbonsäure-di-tert-butylester] | 2300
CC(=O)N(C(C)=O)c1c(C(=O)OC(C)(C)C)c2ccc(Br)ccc-2c1C(=O)OC(C)(C)C [Beispiel 10, 2-Diacetylamino-6-bromo-azulen-1,3-dicarbonsäure-di-tert-butylester] | 500
CC(=O)N(C(C)=O)c1c(C(=O)OC(C)(C)C)c2ccc(C(C(=O)OC(C)(C)C)C(=O)OC(C)(C)C)ccc-2c1C(=O)OC(C)(C)C [Beispiel 11, 6-(Bis-tert-butoxycarbonyl-methyl)-2-diacetylamino-azulene-1,3-dicarbonsäure-di-tert-butylester] | 4200

Further compounds by falling IC50, results first:

IC50 [nM] | SMILES
10500 | CCOC(=O)c1c2ccc(CC(=O)O)ccc-2c(C(=O)O)c1N [Beispiel 2, 2-Amino-6-carboxylmethyl-azulen-1,3-dicarbonsäuremonoethylester]
8000 | CCOC(=O)c1c2cccccc-2c(C(=O)OC(C)(C)C)c1N [Beispiel 8, 2-Amino-azulen-1,3-dicarbonsäure-tert-butyl-ethylester]
2800 | CC(C)(C)OC(=O)c1c2cccccc-2c(C(=O)OC(C)(C)C)c1N [Beispiel 7, 2-Amino-azulen-1,3-dicarbonsäure-di-tert-butylester]
1 | CCOC(=O)c1c2ccc(CC(=O)NO)ccc-2c(C(=O)OCC)c1N [Beispiel 3, 2-Amino-6-hydroxycarbamoylmethyl-azulen-1,3-dicarbonsäurediethylester]

From EP0887339A1, “Azulene derivatives and medicaments containing them” (BOEHRINGER MANNHEIM GMBH, priority 1997, dated 1998)
